Experimental data reported in patent US5723609A, “Bis (hydroxymethyl) cyclobutyl purines” (E. R. Squibb & Sons, Inc., priority 1989, dated 1998).
Read-outs that look alike come from different tables or passages of the source.

Experiments:
VZV = VZV plaque reduction antiviral assay in WI-38 cell monolayers; type: cell-based, varicella zoster virus; details: Human alphaherpesvirus 3; VZV strain ELLEN; WI-38 cells; 6-7 days at 37° C.; at least 50% plaque reduction; read-out: ID50 (the source's name)
Protocol: (§1) Assays were performed in cell culture systems to determine the concentrations of compounds that are effective in preventing several kinds of viral infections.
(§2) HSV-1 (herpes simplex virus type 1, strain Schooler), HSV-2 (herpes simplex virus type 2, strain 186), VZV (varicella zoster virus, strain ELLEN), HCMV (human cytomegalovirus, strain AD 169), MuLV (murine leukemia virus, strain CAS), HIV (human immunodeficiency virus, strain HTLV-IIIB).
(§3) HSV-1, HSV-2, HCMV, and VZV antiviral assays:
(§4) Virus was adsorbed to WI-38 cell culture monolayers in 6 well culture plates (Costar, Cambridge, Mass.) for 1 hour prior to addition of maintenance medium containing duplicate dilutions of the test compound. Inhibition of plaque development was evaluated on fixed and stained monolayers after 4 days incubation at 37° C. for HSV-1 and HSV-2 and after 6-7 days incubation at 37° C. for HCMV and VZV. ID50 values were determined from the drug concentration which conferred at least a 50% plaque reduction compared to virus controls.

HSV-2 = HSV-2 plaque reduction antiviral assay in WI-38 cell monolayers; type: cell-based, herpes simplex virus type 2, strain 186
Protocol: as §1, §2, §3, §4

HSV-1 = HSV-1 plaque reduction antiviral assay in WI-38 cell monolayers; type: cell-based, herpes simplex virus type 1; details: Human alphaherpesvirus 1, 96 h; HSV-1 strain Schooler; WI-38 cells; 4 days at 37° C.; at least 50% plaque reduction; read-out: ID50 (the source's name)
Protocol: as §1, §2, §3, §4

HCMV = HCMV plaque reduction antiviral assay in WI-38 cell monolayers; type: cell-based, human cytomegalovirus; details: Human betaherpesvirus 5; HCMV strain AD 169; WI-38 cells; 6-7 days at 37° C.; at least 50% plaque reduction; read-out: ID50 (the source's name)
Protocol: as §1, §2, §3, §4

HIV = HIV antiviral assay, cytopathic effect in CEM cells (XTT-PMS); type: cell-based; details: Human immunodeficiency virus 1, CCRF-CEM, 168 h, HIV strain HTLV-IIIB, 7 days at 37° C., inhibits CPE by 50%, read-out: ID50 (the source's name)
Protocol: as §1, §2
HIV antiviral assay: Suspensions of CEM(Nara and Fischinger, Nature, 332:469, 1988) cells were infected at a multiplicity of infection (e.g. virus/cell) of 0.12 with HIV (strain HTLV-III B). […] Following incubation, viable cell numbers were counted in each well using a colorimetric assay following incubation of cells with XTT-PMS solution (XTT tetrazolium reagent plus phenazine methosulfate PMS).
Percent reduction of vital cytopathic effect (CPE) in drug treated compared to untreated virus infected cells, and percent reduction of cell viability in drug treated uninfected cells compared to untreated controls were calculated and plotted versus the drug concentrations tested. […]

MuLV = MuLV antiviral assay, syncytial plaques (SC-1 cells, XC cell overlay); type: cell-based; details: Murine leukemia virus, SC1, MuLV strain CAS, read-out: ID50 (the source's name)
Protocol: as §1, §2
Antiviral assays using MuLV were performed with some modification, as described by Rowe et al. and Shannon et al., SC-1 cells were planted at approximately 2×10^5 cell per well in 6 well plates. After overnight incubation at 37° C., the cell cultures were sensitized with DEAE-Dextran for one hour at 37° C., rinsed and inoculated with MuLV. Cultures were re-fed with growth medium containing different concentrations of the test compound. After three more days at 37° C., cultures were re-fed with fresh medium plus test compounds and incubated at 37° C. for an additional 3 days. Cultures were then washed to remove medium, ultraviolet light irradiated, and planted with approximately 5×10^5 XC cells per well in cell growth medium containing the appropriate concentration of the test compound. […] Finally the cultures were rinsed, stained and syncytial plaques were counted.

[1] = Human alphaherpesvirus 2, 96 h, HSV-2 strain 186, WI-38 cells, 4 days at 37° C., at least 50% plaque reduction, read-out: ID50 (the source's name)
[2] = Human alphaherpesvirus 2, WI-38, 96 h, read-out: ID50

SMILES	IC50 (VZV) [µM]	IC50 (HSV-2; [1]) [µM]	IC50 (HSV-1) [µM]	IC50 (HCMV) [µM]	IC50 (HSV-2; [2]) [µM]	IC50 (HIV) [µM]	IC50 (MuLV) [µM]
Nc1nc2c(nnn2[C@@H]2C[C@H](CO)[C@H]2CO)c(=O)[nH]1 (relative stereo) [(1α,2β,3α)-5-Amino-3-[2,3-bis(hydroxymethyl)cyclobutyl]-3,6-dihydro-7H-1,2,3-triazolo[4,5-d]pyrimidin-7-one]	3.8 to 38	7.5	7.5	376	–	–	–
Nc1ccn([C@@H]2C[C@H](CO)[C@H]2CO)c(=O)n1 (relative stereo) [(1α,2β,3α)-4-Amino-1-[2,3-bis(hydroxymethyl)cyclobutyl]-2(1H)-pyrimidinone]	22	444	444	22 to 44	–	–	–
O=c1[nH]c(=O)n([C@@H]2C[C@H](CO)[C@H]2CO)cc1/C=C/Br (relative stereo) [[1α(E),2β,3α]-1-[2,3-Bis(hydroxymethyl)cyclobutyl]-5-(2-bromoethenyl)-2,4(1H,3H)pyrimidinedione]	0.03 to 0.06	–	10 to 30	> 302	> 302	–	–
Nc1ncnc2c1ncn2[C@@H]1C[C@H](CO)[C@H]1CO (relative stereo) [(1α,2β,3α)-3-(6-Amino-9H-purin-9-yl)-1,2-cyclobutanedimethanol]	0.8 to 2	4 to 8	8	0.8	–	6.8	–
Nc1nc2c(ncn2[C@@H]2C[C@H](CO)[C@H]2CO)c(=O)[nH]1 (relative stereo) [(1α,2β,3α)-9-[2,3-Bis(hydroxymethyl)cyclobutyl]guanine]	0.2	0.04 to 0.08	0.08 to 0.2	3.8	–	30	3.8
O=c1[nH]c(=O)n([C@@H]2C[C@H](CO)[C@H]2CO)cc1I (relative stereo) [(1α,2β,3α)-1-[2,3-Bis(hydroxymethyl)cyclobutyl]-5-iodo-2,4(1H,3H)-pyrimidinedione]	14 to 28	–	6 to 14	> 284	> 284	–	–
